Experimental findings from patent publication US11759462B2, “Spirocyclic compounds as tryptophan hydroxylase inhibitors” (priority 2013, dated 2023) are described below.

The target of the test is T1, Recombinant human TPH1 (MBP tagged) (Homo sapiens, UniProt P17752).
T1 construct: cloning full length human TPH1 cDNA in to a bacterial pMAL-c5E expression vector; made in house; host or cells: E. coli BL21 (DE3)
T1 sequence (P17752 1-444): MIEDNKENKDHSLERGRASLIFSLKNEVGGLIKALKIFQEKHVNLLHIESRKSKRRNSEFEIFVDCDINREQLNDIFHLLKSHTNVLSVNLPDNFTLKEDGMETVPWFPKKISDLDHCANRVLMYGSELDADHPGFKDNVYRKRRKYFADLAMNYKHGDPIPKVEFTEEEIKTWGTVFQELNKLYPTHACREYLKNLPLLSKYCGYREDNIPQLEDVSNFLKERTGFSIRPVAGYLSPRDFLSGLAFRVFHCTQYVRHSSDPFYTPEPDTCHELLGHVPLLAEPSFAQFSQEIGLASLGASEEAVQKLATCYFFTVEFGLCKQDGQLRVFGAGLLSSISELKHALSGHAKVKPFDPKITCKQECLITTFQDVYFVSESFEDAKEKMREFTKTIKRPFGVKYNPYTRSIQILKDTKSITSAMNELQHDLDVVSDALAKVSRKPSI
Put plainly: TPH1 in vitro inhibition assay (kinetic fluorescence). The class given is biochemical. Conditions: read-out: TPH1 Range (TPH1 inhibition IC50). The text has this:
Recombinant human TPH1 (rTPH1 GenBank™ accession no. NP_004179) was expressed by cloning full length human TPH1 cDNA in to a bacterial pMAL-c5E expression vector to produce maltose-binding protein (MBP) TPH1 fusion proteins. E. coli BL21 (DE3) containing pMAL-c5E-TPH1 was used for protein generation and the recombinant protein was purified utilizing standard column chromatography techniques. The MBP tagged TPH1 (MBP-TPH1) was used directly to screen compounds as described below. Recombinant human TPH2 (rTPH2 GenBank™ accession no. 173353), PheOH (rPheOH GenBank™ accession no. K03020) and TH (rTH GenBank™ accession no. L20679) with an MBP tag were produced similarly.
TPH1 activities were measured in an assay containing 200 mM ammonium sulfate, 7 mM DTT, 50 μg/mL catalase, 25 μM ammonium iron sulfate, 50 mM MES, pH 7.1. Test compounds were diluted in 100% DMSO and added to the assay plate in 1 μL aliquots at 100× final concentration. Fifty microliters of assay buffer containing 30 nM TPH1 enzyme (MBP tagged) were added to the plate wells containing the test compound by the use of an Eppendorf repeater pipette. The reaction was initiated by the addition of 50 μL of assay buffer containing 60 μM tryptophan and 72 μM 6-6-methyltetra-hydropterin (2× final concentration) by the use of a Multidrop (LabSystems). Final reaction conditions were 15 nM TPH1 enzyme, 30 μM tryptophan, 36 μM 6-methyltetra-hydropterin, 200 mM ammonium sulfate, 7 mM DTT, […], 25 μM ferrous ammonium sulfate, 50 mM MES, pH 7.1, with atmospheric oxygen at room temperature. The plate was immediately placed onto an M5 plate reader (Molecular Devices) for kinetic fluorescence measurement using an excitation setting of 300 nm and an emission setting of 335 nm. Fluorescence reads are recorded in kinetic mode for 300 seconds (5 minutes).
Kinetic assay data for compounds at specific concentrations was translated into slopes using the Softmax Pro software on a Spectramax reader, and compound inhibition slopes were compared with wells containing enzyme, substrate and cofactor in the absence of inhibitor (100%), and wells containing substrate and cofactor in the absence of enzyme (0%). DMSO concentration in the assay was 1%. […] IC50's were determined using Graphpad Prism.

“And” between values parts separate entries of the source, which are not always exact repeats. Equal entries are not always repeated.

For `Cc1ccn(-c2cc(-c3ccc(F)c(Cl)c3)ccc2[C@@H](Oc2cc(N3CCC4(CC3)CN[C@H](C(=O)O)C4)nc(N)n2)C(F)(F)F)n1` [Example 1ar, (S)-8-(2-amino-6-((R)-1-(3′-chloro-4′-fluoro-3-(3-methyl-1H-pyrazol-1-yl)-[1,1′-biphenyl]-4-yl)-2,2,2-trifluoroethoxy)pyrimidin-4-yl)-2,8-diazaspiro[4.5]decane-3-carboxylic acid], the IC50 was 50 to 300 nM.

Consider `Cc1ccn(-c2cc(-c3cccc(OC(F)(F)F)c3)ccc2[C@@H](Oc2cc(N3CCC4(CC3)CN[C@H](C(=O)O)C4)nc(N)n2)C(F)(F)F)n1` [Example 1as, (S)-8-(2-amino-6-((R)-2,2,2-trifluoro-1-(3-(3-methyl-1H-pyrazol-1-yl)-3'-(trifluoromethoxy)-[1,1′-biphenyl]-4-yl)ethoxy)pyrimidin-4-yl)-2,8-diazaspiro[4.5]decane-3-carboxylic acid], for which the IC50 is < 50 nM.

As to `Cc1cc(C)cc(-c2ccc([C@@H](Oc3cc(N4CCC5(CC4)CN[C@H](C(=O)O)C5)nc(N)n3)C(F)(F)F)c(-n3ccc(C)n3)c2)c1` [Example 1at, (S)-8-(2-amino-6-((R)-1-(3′,5′-dimethyl-3-(3-methyl-1H-pyrazol-1-yl)-[1,1′-biphenyl]-4-yl)-2,2,2-trifluoroethoxy)pyrimidin-4-yl)-2,8-diazaspiro[4.5]decane-3-carboxylic acid], the IC50 is < 50 nM.

For `Cc1ccn(-c2cc(-c3ccc(F)c(F)c3)ccc2[C@@H](Oc2cc(N3CCC4(CC3)CN[C@H](C(=O)O)C4)nc(N)n2)C(F)(F)F)n1` [Example 1au, (S)-8-(2-amino-6-((R)-1-(3′,4′-difluoro-3-(3-methyl-1H-pyrazol-1-yl)-[1,1′-biphenyl]-4-yl)-2,2,2-trifluoroethoxy)pyrimidin-4-yl)-2,8-diazaspiro[4.5]decane-3-carboxylic acid], the concentration for half-maximal inhibition (IC50) lay within 50 to 300 nM.

Regarding `Cc1ccn(-c2cc(-c3ccc(F)c(C(F)(F)F)c3)ccc2[C@@H](Oc2cc(N3CCC4(CC3)CN[C@H](C(=O)O)C4)nc(N)n2)C(F)(F)F)n1` [Example 1aw, (S)-8-(2-amino-6-((R)-2,2,2-trifluoro-1-(4′-fluoro-3-(3-methyl-1H-pyrazol-1-yl)-3′-(trifluoromethyl)-[1,1′-biphenyl]-4-yl)ethoxy)pyrimidin-4-yl)-2,8-diazaspiro[4.5]decane-3-carboxylic acid], the IC50 lay in the range of 50 to 300 nM.

On to `Cc1ccn(-c2cc(-c3ccc(OC(C)C)c(F)c3)ccc2[C@@H](Oc2cc(N3CCC4(CC3)CN[C@H](C(=O)O)C4)nc(N)n2)C(F)(F)F)n1` [Example 1ax, (S)-8-(2-amino-6-((R)-2,2,2-trifluoro-1-(3′-fluoro-4′-isopropoxy-3-(3-methyl-1H-pyrazol-1-yl)-[1,1′-biphenyl]-4-yl)ethoxy)pyrimidin-4-yl)-2,8-diazaspiro[4.5]decane-3-carboxylic acid], for which the IC50 is < 50 nM.

As to `CCOc1cc(F)cc(-c2ccc([C@@H](Oc3cc(N4CCC5(CC4)CN[C@H](C(=O)O)C5)nc(N)n3)C(F)(F)F)c(-n3ccc(C)n3)c2)c1` [Example 1ay, (S)-8-(2-amino-6-((R)-1-(3′-ethoxy-5′-fluoro-3-(3-methyl-1H-pyrazol-1-yl)-[1,1′-biphenyl]-4-yl)-2,2,2-trifluoroethoxy)pyrimidin-4-yl)-2,8-diazaspiro[4.5]decane-3-carboxylic acid], the IC50 was < 50 nM and 50 to 300 nM.

Regarding `Cc1ccn(-c2cc(-c3cccc(C(C)(C)C)c3)ccc2[C@@H](Oc2cc(N3CCC4(CC3)CN[C@H](C(=O)O)C4)nc(N)n2)C(F)(F)F)n1` [Example 1az, (S)-8-(2-amino-6-((R)-1-(3′-(tert-butyl)-3-(3-methyl-1H-pyrazol-1-yl)-[1,1′-biphenyl]-4-yl)-2,2,2-trifluoroethoxy)pyrimidin-4-yl)-2,8-diazaspiro[4.5]decane-3-carboxylic acid], the IC50 lay in the range of 50 to 300 nM.

For `CSc1ccc(-c2ccc([C@@H](Oc3cc(N4CCC5(CC4)CN[C@H](C(=O)O)C5)nc(N)n3)C(F)(F)F)c(-n3ccc(C)n3)c2)cc1` [Example 1b, (S)-8-(2-amino-6-((R)-2,2,2-trifluoro-1-(3-(3-methyl-1H-pyrazol-1-yl)-4′-(methylthio)-[1,1′-biphenyl]-4-yl)ethoxy)pyrimidin-4-yl)-2,8-diazaspiro[4.5]decane-3-carboxylic acid], the IC50 is < 50 nM.

For the molecule `Cc1ccn(-c2cc(-c3ccc(F)c(C)c3)ccc2[C@@H](Oc2cc(N3CCC4(CC3)CN[C@H](C(=O)O)C4)nc(N)n2)C(F)(F)F)n1` [Example 1ba, (S)-8-(2-amino-6-((R)-2,2,2-trifluoro-1-(4′-fluoro-3′-methyl-3-(3-methyl-1H-pyrazol-1-yl)-[1,1′-biphenyl]-4-yl)ethoxy)pyrimidin-4-yl)-2,8-diazaspiro[4.5]decane-3-carboxylic acid], the IC50 was < 50 nM.

Take `Cc1ccn(-c2cc(-c3cccc(C(C)C)c3)ccc2[C@@H](Oc2cc(N3CCC4(CC3)CN[C@H](C(=O)O)C4)nc(N)n2)C(F)(F)F)n1` [Example 1bb, (S)-8-(2-amino-6-((R)-2,2,2-trifluoro-1-(3′-isopropyl-3-(3-methyl-1H-pyrazol-1-yl)-[1,1′-biphenyl]-4-yl)ethoxy)pyrimidin-4-yl)-2,8-diazaspiro[4.5]decane-3-carboxylic acid]: the IC50 is < 50 nM.

For the molecule `Cc1ccn(-c2cc(-c3cccc(OC(C)C)c3)ccc2[C@@H](Oc2cc(N3CCC4(CC3)CN[C@H](C(=O)O)C4)nc(N)n2)C(F)(F)F)n1` [Example 1bc, (S)-8-(2-amino-6-((R)-2,2,2-trifluoro-1-(3′-isopropoxy-3-(3-methyl-1H-pyrazol-1-yl)-[1,1′-biphenyl]-4-yl)ethoxy)pyrimidin-4-yl)-2,8-diazaspiro[4.5]decane-3-carboxylic acid], the IC50 is < 50 nM.

Consider `Cc1ccn(-c2cc(-c3ccc(Cl)c(C)c3)ccc2[C@@H](Oc2cc(N3CCC4(CC3)CN[C@H](C(=O)O)C4)nc(N)n2)C(F)(F)F)n1` [Example 1bd, (S)-8-(2-amino-6-((R)-1-(4′-chloro-3′-methyl-3-(3-methyl-1H-pyrazol-1-yl)-[1,1′-biphenyl]-4-yl)-2,2,2-trifluoroethoxy)pyrimidin-4-yl)-2,8-diazaspiro[4.5]decane-3-carboxylic acid], for which the IC50 was < 50 nM.

For `Cc1ccn(-c2cc(-c3cccc(C(N)=O)c3)ccc2[C@@H](Oc2cc(N3CCC4(CC3)CN[C@H](C(=O)O)C4)nc(N)n2)C(F)(F)F)n1` [Example 1be, (S)-8-(2-amino-6-((R)-1-(3′-carbamoyl-3-(3-methyl-1H-pyrazol-1-yl)-[1,1′-biphenyl]-4-yl)-2,2,2-trifluoroethoxy)pyrimidin-4-yl)-2,8-diazaspiro[4.5]decane-3-carboxylic acid], the half-maximal inhibitory concentration (IC50) was 50 to 300 nM.

Regarding `Cc1ccn(-c2cc(-c3cc(C(F)(F)F)cc(C(F)(F)F)c3)ccc2[C@@H](Oc2cc(N3CCC4(CC3)CN[C@H](C(=O)O)C4)nc(N)n2)C(F)(F)F)n1` [Example 1bf, (S)-8-(2-amino-6-((R)-2,2,2-trifluoro-1-(3-(3-methyl-1H-pyrazol-1-yl)-3′,5′-bis(trifluoromethyl)-[1,1′-biphenyl]-4-yl)ethoxy)pyrimidin-4-yl)-2,8-diazaspiro[4.5]decane-3-carboxylic acid], the IC50 was in the range of 50 to 300 nM.

Take `CCOc1cc(-c2ccc([C@@H](Oc3cc(N4CCC5(CC4)CN[C@H](C(=O)O)C5)nc(N)n3)C(F)(F)F)c(-n3ccc(C)n3)c2)ccc1F` [Example 1bg, (S)-8-(2-amino-6-((R)-1-(3′-ethoxy-4′-fluoro-3-(3-methyl-1H-pyrazol-1-yl)-[1,1′-biphenyl]-4-yl)-2,2,2-trifluoroethoxy)pyrimidin-4-yl)-2,8-diazaspiro[4.5]decane-3-carboxylic acid]: the IC50 was < 50 nM.

In general, IC50 refers to the midpoint of a concentration-inhibition curve.
